Reference: PubChem BioAssay AID1963837 (Molecular Pharmacology Branch, DTP, NCI, 2024)
Values joined by “and” are separate entries in the source; they are usually repeats but may differ in a detail not shown here. Identical values can stand only once.

System: 843126-344-R-J1-PDC complex spheroid viability
Test: Anticancer human tumor 843126-344-R-J1-PDC patient-derived melanoma cell line growth inhibition [POLQ]
Details: for viability, T/C: stronger effect = lower value
Procedure: Multicellular complex tumor spheroid response to Polymerase (POL) inhibitors (novobiocin, ART-558, RP6685) in combination with a variety of drugs and investigational agents in selected tumor cell lines
The POL inhibitors (novobiocin, ART-558, and RP6685) were evaluated both individually and in combination with standard of care and investigational anticancer small molecules within a complex spheroid model of solid tumors. . Complex spheroids include a stromal component modeled by human endothelial cells (HUVEC) and fibroblasts modeled by human mesenchymal stem cells (MSCs). The concentration ranges selected for each drug and investigational agent were based upon clinically achievable concentrations if the clinical Cmax of the agent was known.
Compounds. The drugs and investigational agents: novobiocin (NSC847541), ART-558 (NSC835418), RP-6685 (NSC848927), peposertib (NSC802822), ceralasertib (NSC780249), elimusertib (NSC800525), camonsertib (NSC841442), AZD-1390 (NSC803789), olaparib (NSC753686), talazoparib (NSC767125), rucaparib (NSC756644), sotorasib (NSC818433), MRTX-1133 (NSC836407), SN-38 (NSC673596), topotecan (NSC609699), epotoside (NSC141540), doxorubicin (NSC123127), gemcitabine (NSC613327), 5-fluorouracil (NSC19893), paclitaxel (NSC125973), vemurafenib (NSC761431), MSA-2 (NSC828583), SN-011 (NSC837082), adavosertib (NSC754352), prexasertib (NSC758257), carboplatin (NSC241240) and oxaliplatin (NSC266046), were obtained from the National Cancer Institute (NCI) Developmental Therapeutics Program Chemical Repository (21). The FDA-approved anticancer drug set is available from the Developmental Therapeutics Program at https://dtp.cancer.gov/organization/dscb/obtaining/. […] The stock solutions were prepared in dimethyl sulfoxide (DMSO, Sigma-Aldrich, St. Louis, MO, cat. D2650), except for the platinum compounds which were prepared in saline (Quality Biological, Gaithersburg, MD, cat. 114-055-101), at 800-fold the tested concentration and stored at -70 degrees C prior to their use. All drugs and investigational agents were tested over a range starting from a high concentration at or near the clinical Cmax and decreasing in half-log increments. If the clinical Cmax for an agent had not been determined, the highest concentration tested was 10 microM, except for SN-38, which was tested at a high concentration of 1 microM.
Cell Culture. All cells were maintained in an incubator at 37 degrees C and 5% CO2 with 95% humidity. The PDC lines were cultured according to standard operating procedures established by the NCI PDMR (https://pdmr.cancer.gov). Table 3 of the manuscript, lists the cell lines along with the number of the three cell types plated to form the mct-spheroids and media for tumor cell growth. After thawing, all PDC lines, except 997537-175-T-J1-PDC and 415267-285-R-J2-PDC, were cultured in Matrigel-coated flasks prepared with a working solution of 1X Ham's F-12 nutrient mix, without supplementation (Thermo Fisher Scientific, cat. 11765054), 100 U/mL penicillin-streptomycin (Thermo Fisher Scientific, cat. 15140122), and 2.5% Matrigel (Corning Inc., Corning, NY, cat. 354248) for the first three passages. The two PDC lines 997537-175-T-J1-PDC and 415267-285-R-J2-PDC were cultured on uncoated flasks. The 857933-349-R-J2-PDC line was cultured in 6C/Colon 1B media containing advanced DMEM/F-12 (Thermo Fisher Scientific, cat. 12634028), 10 mM HEPES (Thermo Fisher Scientific, cat. 15630080), 1X GlutaMAX supplement (Thermo Fisher Scientific, cat. 35050061), 0.1 mg/mL primocin (InvivoGen, San Diego, CA, cat. ant-pm-2), 10% defined fetal bovine serum, heat inactivated (HyClone Laboratories Inc., Logan, UT, cat. SH30070.03HI), 50% L-WRN conditioned media (ATCC, cat. CRL-3276), 1.25 mM N-Acetyl-L-cysteine (Sigma-Aldrich, cat. A9165), 10 mM nicotinamide (Sigma-Aldrich, cat. N0636), 1X B-27 supplement (Thermo Fisher Scientific, cat. 17504044), 1X N-2 supplement (Thermo Fisher Scientific, cat. […]
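Throughout, for viability, T/C: spheroids exposed to drugs for seven days before readout.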

## CC1COCCN1c1cc(C2(O)CC3CCC(C2)O3)c2cnn(-c3ccn[nH]3)c2n1 (stereo not given)
Compound 0.0316 µM
  viability, T/C: 93.2% and 82.1% and 81.5%
Compound 0.1 µM
  viability, T/C: 66.9% and 57.4% and 68.6%
Compound 0.316 µM
  viability, T/C: 63.7% and 52.7% and 51.1%
Compound 1 µM
  viability, T/C: 38% and 44.3% and 35.9%
Compound 3.16 µM
  viability, T/C: 29.8% and 23.2% and 26%
Compound 10 µM
  viability, T/C: 20% and 15.3% and 18.9%
Curve of compound
  IC50: 527 nM and 355 nM and 353 nM

## Nc1ccn(C2OC(CO)C(O)C2(F)F)c(=O)n1 (stereo not given)
Compound 0.0316 µM
  viability, T/C: 46.2% and 42.9% and 42.2%
Compound 0.1 µM
  viability, T/C: 38.7% and 36.8% (2×)
Compound 0.316 µM
  viability, T/C: 47.1% and 45.8% and 33.8%
Compound 1 µM
  viability, T/C: 43% and 35% and 37.6%
Compound 3.16 µM
  viability, T/C: 41.3% and 39.6% and 33.5%
Compound 10 µM
  viability, T/C: 38.2% and 37.7% and 35.1%
Curve of compound
  IC50: < 31.6 nM

## COc1cccc2c1C(=O)c1c(O)c3c(c(O)c1C2=O)CC(O)(C(=O)CO)CC3OC1CC(N)C(O)C(C)O1 (stereo not given)
Compound 0.0316 µM
  viability, T/C: 82.8% and 77.3% and 86.3%
Compound 0.1 µM
  viability, T/C: 70.2% and 71% and 79.7%
Compound 0.316 µM
  viability, T/C: 44.3% and 47.8% and 56.8%
Compound 1 µM
  viability, T/C: 12.3% and 15.1% and 18.4%
Compound 3.16 µM
  viability, T/C: 4.78% and 2.95% and 3.66%
Compound 10 µM
  viability, T/C: 3.94% and 2.18% and 3.96%
Curve of compound
  IC50: 237 nM and 282 nM and 385 nM

## C=CC(=O)N1CCN(c2nc(=O)n(-c3c(C)ccnc3C(C)C)c3nc(-c4c(O)cccc4F)c(F)cc23)C(C)C1 (stereo not given)
Compound 0.0316 µM
  viability, T/C: 96.7% and 98.3% and 89.5%
Compound 0.1 µM
  viability, T/C: 85.1% and 110% and 73.2%
Compound 0.316 µM
  viability, T/C: 104% and 107% and 95.8%
Compound 1 µM
  viability, T/C: 104% and 85.4% and 106%
Compound 3.16 µM
  viability, T/C: 92.8% and 96.1% and 113%
Compound 10 µM
  viability, T/C: 67.2% and 91% and 79.3%
Curve of compound
  IC50: > 10000 nM

## Nc1ccn(C2OC(CO)C(O)C2(F)F)c(=O)n1 (stereo not given) + Nc1ccc(C#CCN(C(=O)Cc2ncc(C(F)(F)F)cc2C(F)(F)F)c2ccc(F)cc2)nn1
Curve of first compound, second compound 0.0316 µM
  IC50: < 31.6 nM
Curve of first compound, second compound 0.1 µM
  IC50: < 31.6 nM
Curve of first compound, second compound 0.316 µM
  IC50: < 31.6 nM
Curve of first compound, second compound 1 µM
  IC50: < 31.6 nM
Curve of first compound, second compound 3.16 µM
  IC50: < 31.6 nM
Curve of first compound, second compound 10 µM
  IC50: < 31.6 nM
Second compound 0.0316 µM, first compound 0.0316 µM
  viability, T/C: 36.5%
Second compound 0.0316 µM, first compound 0.1 µM
  viability, T/C: 35.5%
Second compound 0.0316 µM, first compound 0.316 µM
  viability, T/C: 38.9%
Second compound 0.0316 µM, first compound 1 µM
  viability, T/C: 38%
Second compound 0.0316 µM, first compound 3.16 µM
  viability, T/C: 37.6%
Second compound 0.0316 µM, first compound 10 µM
  viability, T/C: 35%
Second compound 0.1 µM, first compound 0.0316 µM
  viability, T/C: 43%
Second compound 0.1 µM, first compound 0.1 µM
  viability, T/C: 41.8%
Second compound 0.1 µM, first compound 0.316 µM
  viability, T/C: 38.7%
Second compound 0.1 µM, first compound 1 µM
  viability, T/C: 39.8%
Second compound 0.1 µM, first compound 3.16 µM
  viability, T/C: 38.5%
Second compound 0.1 µM, first compound 10 µM
  viability, T/C: 41.8%
Second compound 0.316 µM, first compound 0.0316 µM
  viability, T/C: 48.2%
Second compound 0.316 µM, first compound 0.1 µM
  viability, T/C: 38.5%
Second compound 0.316 µM, first compound 0.316 µM
  viability, T/C: 36%
Second compound 0.316 µM, first compound 1 µM
  viability, T/C: 38%
Second compound 0.316 µM, first compound 3.16 µM
  viability, T/C: 38.9%
Second compound 0.316 µM, first compound 10 µM
  viability, T/C: 37.3%
Second compound 1 µM, first compound 0.0316 µM
  viability, T/C: 36.3%
Second compound 1 µM, first compound 0.1 µM
  viability, T/C: 35.3%
Second compound 1 µM, first compound 0.316 µM
  viability, T/C: 46.5%
Second compound 1 µM, first compound 1 µM
  viability, T/C: 35%
Second compound 1 µM, first compound 3.16 µM
  viability, T/C: 38.2%
Second compound 1 µM, first compound 10 µM
  viability, T/C: 29.6%
Second compound 3.16 µM, first compound 0.0316 µM
  viability, T/C: 36.4%
Second compound 3.16 µM, first compound 0.1 µM
  viability, T/C: 35.2%
Second compound 3.16 µM, first compound 0.316 µM
  viability, T/C: 39.9%
Second compound 3.16 µM, first compound 1 µM
  viability, T/C: 36.2%
Second compound 3.16 µM, first compound 3.16 µM
  viability, T/C: 37.5%
Second compound 3.16 µM, first compound 10 µM
  viability, T/C: 36.5%
Second compound 10 µM, first compound 0.0316 µM
  viability, T/C: 39.5%
Second compound 10 µM, first compound 0.1 µM
  viability, T/C: 38.1%
Second compound 10 µM, first compound 0.316 µM
  viability, T/C: 32.8%
Second compound 10 µM, first compound 1 µM
  viability, T/C: 39.9%
Second compound 10 µM, first compound 3.16 µM
  viability, T/C: 31.2%
Second compound 10 µM, first compound 10 µM
  viability, T/C: 42.6%
